In ChEMBL document CHEMBL1134904, “The activity of p-methoxybenzylisothiocyanate against Neisseria gonorrhoeae, Haemophilus ducreyi, and other microorganisms” (Bioorg Med Chem Lett, 2002):
Values after ≈ are worked out from the molar mass of the structure shown.

Key:
[1] = system: Bacillus subtilis; test: The compound was tested for minimal inhibitory concentration against Bacillus subtilis; assay type: functional
[2] = system: Escherichia coli; test: The compound was tested for minimal inhibitory concentration against Escherichia coli; assay type: functional
[3] = system: Enterobacter sp.; test: The compound was tested for minimal inhibitory concentration against Enterobacter sp.; assay type: functional
[4] = system: [Haemophilus] ducreyi; test: The compound was tested for minimal inhibitory concentration against Haemophilus ducreyi; assay type: functional
[5] = system: Micrococcus luteus; test: The compound was tested for minimal inhibitory concentration against Micrococcus luteus; assay type: functional
[6] = system: Neisseria gonorrhoeae; test: The compound was tested for minimal inhibitory concentration against Neisseria gonorrhoeae; assay type: functional
[7] = system: Pseudomonas aeruginosa; test: The compound was tested for minimal inhibitory concentration against Resistant Pseudomonas aeruginosa; assay type: functional
[8] = system: Staphylococcus aureus; test: The compound was tested for minimal inhibitory concentration against Resistant Staphylococcus aureus; assay type: functional
[9] = system: Staphylococcus aureus; test: The compound was tested for minimal inhibitory concentration against Staphylococcus aureus; assay type: functional
[10] = system: Pseudomonas aeruginosa; test: The compound was tested for minimal inhibitory concentration against Pseudomonas aeruginosa; assay type: functional
[11] = system: Neisseria gonorrhoeae; test: The compound was tested for minimal inhibitory concentration against Penicillinase producing Neisseria gonorrhoeae (PPNG); assay type: functional
[12] = system: Candida albicans; test: The compound was tested for minimal inhibitory concentration against Candida albicans; assay type: functional
[13] = In vitro cellular toxicity was determined at a concentration of 100 uM in Graham cell lines; found to be non toxic at the above concentration; assay type: cell-based

C[C@H]1c2cccc(O)c2C(=O)C2=C(O)[C@]3(O)C(=O)C(C(N)=O)=C(O)[C@@H](N(C)C)[C@@H]3[C@@H](O)[C@@H]21.O [DOXYCYCLINE]
MIC [1]: 8 µg/mL
MIC [2]: 2 µg/mL
MIC [3]: 8 µg/mL
MIC [4]: 4 µg/mL
MIC [5]: 8 µg/mL
MIC [6]: 0.5 µg/mL
MIC [7]: > 32 µg/mL
MIC [8]: > 32 µg/mL
MIC [9]: 8 µg/mL
MIC [10]: 8 µg/mL
MIC [11]: > 32 µg/mL

CC1(C)S[C@@H]2[C@H](NC(=O)[C@H](N)c3ccccc3)C(=O)N2[C@H]1C(=O)O [AMPICILLIN]
MIC [1]: > 32 µg/mL
MIC [2]: 8 µg/mL (≈ 22.9 µM)
MIC [3]: 16 µg/mL (≈ 45.8 µM)
MIC [4]: 2 µg/mL (≈ 5.72 µM)
MIC [5]: 2 µg/mL (≈ 5.72 µM)
MIC [6]: 0.25 µg/mL (≈ 0.715 µM)
MIC [8]: > 32 µg/mL
MIC [9]: 2 µg/mL (≈ 5.72 µM)
MIC [10]: > 32 µg/mL
MIC [11]: > 32 µg/mL

COc1ccc(CN=C=S)cc1
MIC [1]: 32 µg/mL (≈ 179 µM)
MIC [12]: 2 µg/mL (≈ 11.2 µM)
MIC [2]: 32 µg/mL (≈ 179 µM)
MIC [3]: 8 µg/mL (≈ 44.6 µM)
MIC [4]: 64 µg/mL (≈ 357 µM)
MIC [5]: 8 µg/mL (≈ 44.6 µM)
MIC [6]: 4 µg/mL (≈ 22.3 µM)
MIC [7]: 16 µg/mL (≈ 89.3 µM)
MIC [8]: 8 µg/mL (≈ 44.6 µM)
MIC [9]: 2 µg/mL (≈ 11.2 µM)
Toxicity [13]: Not toxic
MIC [10]: 16 µg/mL (≈ 89.3 µM)
MIC [11]: 4 µg/mL (≈ 22.3 µM)

C[C@@H]1[C@H](O)[C@@H](C)/C=C/C=C/C=C/C=C/C=C/C=C/C=C/[C@H](O[C@@H]2O[C@H](C)[C@@H](O)[C@H](N)[C@@H]2O)C[C@@H]2O[C@](O)(C[C@@H](O)C[C@@H](O)[C@H](O)CC[C@@H](O)C[C@@H](O)CC(=O)O[C@H]1C)C[C@H](O)[C@H]2C(=O)O (relative stereo) [AMPHOTERICIN B]
MIC [12]: 2 µg/mL (≈ 2.16 µM)

OC(Cn1cncn1)(Cn1cncn1)c1ccc(F)cc1F [FLUCONAZOLE]
MIC [12]: 0.25 µg/mL (≈ 0.816 µM)

O=C(O)c1cn(C2CC2)c2cc(N3CCNCC3)c(F)cc2c1=O [CIPROFLOXACIN]
MIC [1]: 2 µg/mL (≈ 6.04 µM)
MIC [3]: 2 µg/mL (≈ 6.04 µM)
MIC [5]: 2 µg/mL (≈ 6.04 µM)
MIC [6]: 0.25 µg/mL (≈ 0.754 µM)
MIC [7]: > 32 µg/mL
MIC [8]: > 32 µg/mL
MIC [9]: 2 µg/mL (≈ 6.04 µM)
MIC [11]: 0.25 µg/mL (≈ 0.754 µM)
